According to PubChem BioAssay (NCI):
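Interpolation was linear, between the two tested concentrations surrounding the appropriate level; five concentrations were tested over 48 hours in 96-well plates. The concentration for 50% growth inhibition is given as GI50. Definition used: TGI = concentration required for complete inhibition of growth.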

How the values were obtained:
Assay in all cases: inhibition of tumour cell growth, NCI panel, 48 h
[1] = test system: NCI-H23 lung
[2] = test system: NCI-H460 lung
[3] = test system: NCI-H522 lung
[4] = test system: NCI/ADR-RES ovarian
[5] = test system: OVCAR-3 ovarian
[6] = test system: OVCAR-4 ovarian
[7] = test system: OVCAR-5 ovarian
[8] = test system: OVCAR-8 ovarian
[9] = test system: PC-3 prostate
[10] = test system: RPMI-8226 leukemia
[11] = test system: RXF 393 renal
[12] = test system: SF-268 CNS
[13] = test system: SF-295 CNS
[14] = test system: SF-539 CNS
[15] = test system: SK-MEL-2 melanoma
[16] = test system: SK-MEL-28 melanoma
[17] = test system: SK-MEL-5 melanoma
[18] = test system: SK-OV-3 ovarian
[19] = test system: SN12C renal
[20] = test system: SNB-19 CNS
[21] = test system: SNB-75 CNS
[22] = test system: SR leukemia
[23] = test system: SW-620 colon
[24] = test system: T-47D breast
[25] = test system: TK-10 renal
[26] = test system: U251 CNS
[27] = test system: UACC-257 melanoma
[28] = test system: UACC-62 melanoma
[29] = test system: UO-31 renal

CN1CCN(c2nc(-c3cnc4ccccc4n3)cc3ccccc23)CC1
GI50 [1]: 30.7 µM
TGI [1]: > 100 µM
GI50 [2]: 3.67 µM
TGI [2]: 13.1 µM
GI50 [3]: 18.1 µM
TGI [3]: > 56.8 µM
GI50 [4]: 21.5 µM
TGI [4]: > 100 µM
GI50 [5]: 18.8 µM
TGI [5]: > 100 µM
GI50 [6]: > 43.8 µM
TGI [6]: > 91.1 µM
GI50 [7]: > 36 µM
TGI [7]: > 72.9 µM
GI50 [8]: 10.3 µM
TGI [8]: > 100 µM
GI50 [9]: 10.3 µM
TGI [9]: > 100 µM
GI50 [10]: 3.04 µM
TGI [10]: 13 µM
GI50 [11]: 4.97 µM
TGI [11]: 15.1 µM
GI50 [12]: > 46.8 µM
TGI [12]: > 100 µM
GI50 [13]: 7.88 µM
TGI [13]: 20.3 µM
GI50 [14]: 8 µM
TGI [14]: > 51.2 µM
GI50 [15]: 30.8 µM
TGI [15]: > 54.7 µM
GI50 [16]: 2.29 µM
TGI [16]: 5.27 µM
GI50 [17]: 7.39 µM
TGI [17]: > 50.4 µM
GI50 [18]: > 44.8 µM
TGI [18]: > 72 µM
GI50 [19]: 12.6 µM
TGI [19]: > 48.6 µM
GI50 [20]: > 53.7 µM
TGI [20]: > 100 µM
GI50 [21]: 16.7 µM
TGI [21]: > 88.6 µM
GI50 [22]: 2.02 µM
TGI [22]: 6.04 µM
GI50 [23]: 2.22 µM
TGI [23]: 5.11 µM
GI50 [24]: 12.4 µM
TGI [24]: 31.2 µM
GI50 [25]: > 41.8 µM
TGI [25]: > 62.7 µM
GI50 [26]: 8 µM
TGI [26]: > 48.4 µM
GI50 [27]: 1.89 µM
TGI [27]: 3.91 µM
GI50 [28]: 2.84 µM
TGI [28]: 8.23 µM
GI50 [29]: 3.67 µM
TGI [29]: > 49.3 µM
